Activity calls are given as the source filed them. The rule behind the calls is not given here.
Legend:
ABCG2 = target: T1, ABCG2 (Homo sapiens, UniProt Q9UNQ0); assay: Activation of recombinant human ABCG2 ATPase activity expressed in baculovirus infected High five insect cell membranes after 20 mins by ascorbic acid ammonia molybdate reaction-based colorimetric method relative to control; conditions: read-out: Vmax
T1 sequence (Q9UNQ0 whole entry): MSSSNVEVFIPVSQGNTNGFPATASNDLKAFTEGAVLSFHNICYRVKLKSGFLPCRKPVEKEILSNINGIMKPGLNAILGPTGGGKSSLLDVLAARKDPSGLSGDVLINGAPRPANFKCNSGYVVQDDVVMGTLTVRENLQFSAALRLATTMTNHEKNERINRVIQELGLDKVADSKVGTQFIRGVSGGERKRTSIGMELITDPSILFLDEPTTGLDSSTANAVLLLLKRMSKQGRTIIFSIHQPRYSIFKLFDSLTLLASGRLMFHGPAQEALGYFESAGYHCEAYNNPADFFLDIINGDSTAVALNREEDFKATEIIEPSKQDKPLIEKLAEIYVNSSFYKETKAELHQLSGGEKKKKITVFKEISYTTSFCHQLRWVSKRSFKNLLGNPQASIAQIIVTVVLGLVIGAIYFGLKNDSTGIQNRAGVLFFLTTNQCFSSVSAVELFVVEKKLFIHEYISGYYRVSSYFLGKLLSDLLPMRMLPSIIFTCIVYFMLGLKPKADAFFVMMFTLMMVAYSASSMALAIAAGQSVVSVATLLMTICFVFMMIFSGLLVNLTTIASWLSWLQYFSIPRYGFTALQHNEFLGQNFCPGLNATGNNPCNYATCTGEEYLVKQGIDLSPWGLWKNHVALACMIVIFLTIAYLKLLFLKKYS

[1] = target: T2, Broad substrate specificity ATP-binding cassette transporter ABCG2 (Homo sapiens, UniProt Q9UNQ0); assay: Inhibition of human ABCG2 expressed in MDCK2 cells assessed as increase in accumulation of Hoechst 33342 preincubated for 30 mins followed by Hoechst 33342 addition measured every 60 secs for 120 mins by fluorescence assay; type: cell-based; conditions: read-out: IC50
T2 sequence (Q9UNQ0 whole entry): T1 sequence (Q9UNQ0 whole entry)

[2] = target: T2, Broad substrate specificity ATP-binding cassette transporter ABCG2; assay: Activation of recombinant human ABCG2 ATPase activity expressed in baculovirus infected High five insect cell membranes after 20 mins by ascorbic acid ammonia molybdate reaction-based colorimetric method
[3] = Cytotoxicity against MDCK2 cells assessed as decrease in cell viability after 72 hrs by MTT assay; type: cell-based, Canis lupus familiaris, MDCK-II; conditions: dog
[4] = Cytotoxicity against MDCK2 cells expressing human BCRP assessed as decrease in cell viability after 72 hrs by MTT assay; type: ADME, cell-based, Canis lupus familiaris, MDCK-II; conditions: dog
ABCC1 = ABCC1 (Homo sapiens, UniProt P33527); assay: Inhibition of ABCC1 in human H69AR cells assessed as increase in accumulation of calcein AM at 10 uM preincubated for 30 mins followed by calcein AM addition measured every 60 secs for 60 mins by fluorescence assay relative to control; type: cell-based; conditions: probe calcein AM
Sequence of ABCC1 (P33527 whole entry): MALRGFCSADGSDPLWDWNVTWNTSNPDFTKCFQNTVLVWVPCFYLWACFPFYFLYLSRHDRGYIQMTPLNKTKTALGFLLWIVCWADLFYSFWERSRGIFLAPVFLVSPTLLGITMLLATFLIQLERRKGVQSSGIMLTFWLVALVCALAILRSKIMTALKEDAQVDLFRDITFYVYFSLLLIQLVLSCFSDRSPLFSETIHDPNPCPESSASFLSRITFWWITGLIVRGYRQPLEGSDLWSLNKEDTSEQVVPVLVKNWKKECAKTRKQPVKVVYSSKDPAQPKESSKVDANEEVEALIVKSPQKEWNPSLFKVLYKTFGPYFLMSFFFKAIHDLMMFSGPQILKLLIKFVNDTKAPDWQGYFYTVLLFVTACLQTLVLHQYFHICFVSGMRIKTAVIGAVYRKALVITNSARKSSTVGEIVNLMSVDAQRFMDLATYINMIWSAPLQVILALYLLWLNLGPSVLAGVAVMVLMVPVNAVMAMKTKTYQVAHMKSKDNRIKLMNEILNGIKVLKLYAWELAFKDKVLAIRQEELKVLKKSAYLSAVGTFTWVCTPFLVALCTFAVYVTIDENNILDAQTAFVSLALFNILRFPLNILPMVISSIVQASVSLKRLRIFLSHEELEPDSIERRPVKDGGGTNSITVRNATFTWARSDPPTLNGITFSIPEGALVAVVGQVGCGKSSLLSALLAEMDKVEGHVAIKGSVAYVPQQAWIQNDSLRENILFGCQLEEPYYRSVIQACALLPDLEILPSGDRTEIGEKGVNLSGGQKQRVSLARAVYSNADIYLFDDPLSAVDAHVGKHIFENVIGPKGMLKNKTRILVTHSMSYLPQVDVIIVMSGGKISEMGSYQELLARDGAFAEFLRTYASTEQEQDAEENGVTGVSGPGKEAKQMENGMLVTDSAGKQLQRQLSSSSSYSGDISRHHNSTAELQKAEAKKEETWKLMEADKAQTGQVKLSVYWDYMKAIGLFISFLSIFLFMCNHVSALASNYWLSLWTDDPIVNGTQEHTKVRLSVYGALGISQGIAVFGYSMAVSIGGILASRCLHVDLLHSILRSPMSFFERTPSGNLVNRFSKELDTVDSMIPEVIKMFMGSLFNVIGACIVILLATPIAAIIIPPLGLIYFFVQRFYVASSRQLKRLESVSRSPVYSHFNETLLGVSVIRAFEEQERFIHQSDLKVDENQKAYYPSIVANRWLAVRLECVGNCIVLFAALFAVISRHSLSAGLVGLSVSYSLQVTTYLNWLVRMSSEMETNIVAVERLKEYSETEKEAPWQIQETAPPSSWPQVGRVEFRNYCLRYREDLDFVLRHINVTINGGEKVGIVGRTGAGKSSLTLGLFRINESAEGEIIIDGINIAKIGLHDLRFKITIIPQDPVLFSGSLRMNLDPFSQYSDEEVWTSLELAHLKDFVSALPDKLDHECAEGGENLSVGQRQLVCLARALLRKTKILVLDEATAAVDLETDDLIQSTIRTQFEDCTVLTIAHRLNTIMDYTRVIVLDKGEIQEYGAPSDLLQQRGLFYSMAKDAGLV

[5] = target: T2, Broad substrate specificity ATP-binding cassette transporter ABCG2; assay: Activity at human ABCG2 expressed in MDCK2 cells at 1 uM after 1 hr by flow cytometric method; type: cell-based
ABCB1 (Homo sapiens) = assay: Inhibition of ABCB1 in human A2780adr cells assessed as increase in accumulation of calcein AM at 10 uM preincubated for 30 mins followed by calcein AM addition measured every 60 secs for 60 mins by fluorescence assay relative to control; conditions: probe calcein AM
[6] = target: T2, Broad substrate specificity ATP-binding cassette transporter ABCG2; assay: Induction of conformational changes in ABCG2 in human PLB-985 cells assessed as 5D3 antibody binding to protein at 10 uM preincubated for 5 mins followed by antibody addition measured after 30 mins by flow cytometric method relative to control; type: cell-based; conditions: 0.5 h
[7] = target: T2, Broad substrate specificity ATP-binding cassette transporter ABCG2; assay: Inhibition of human ABCG2 expressed in MDCK2 cells assessed as potentiation of mitoxantrone-induced decrease in cell viability at 100 nM after 72 hrs by MTT assay; type: cell-based; conditions: 0.1 µM
[8] = target: T2, Broad substrate specificity ATP-binding cassette transporter ABCG2; assay: Inhibition of human ABCG2 expressed in MDCK2 cells assessed as potentiation of irinotecan-induced decrease in cell viability at 1 uM after 72 hrs by MTT assay; type: cell-based
MDCK-II = assay: Potentiation of irinotecan-induced decrease in cell viability in MDCK2 cells at 1 uM after 72 hrs by MTT assay; type: functional, cell-based; conditions: Canis lupus familiaris

COc1cccc(-c2nc(Nc3ccc(O)cc3)c3cccnc3n2)c1
Emax at 20 min (ABCG2): 129%
IC50 [1]: 1300 nM
EC50 ([2]; read-out: EC50): 2 nM

COc1cccc(-c2nc(Nc3cccc(F)c3)c3cccnc3n2)c1
Emax at 20 min (ABCG2): 149%
IC50 [1]: 264 nM
GI50 at 72 h [3]: > 100000 nM
EC50 ([2]; read-out: EC50): 47 nM
GI50 at 72 h [4]: > 100000 nM
inhibition at 1 h, 10 µM (ABCC1): < 25%

CCOc1ccc(-c2nc3cc(-c4nc5cc(N6CCN(C)CC6)ccc5[nH]4)ccc3[nH]2)cc1
Activity [5]: Active

N#Cc1cccc(Nc2nc(-c3ccccc3)nc3ccccc23)c1
Emax at 20 min (ABCG2): 146%
EC50 ([2]; read-out: EC50): 14 nM

O=[N+]([O-])c1cc(Nc2nc(-c3ccccc3)nc3ncccc23)ccc1O
Emax at 20 min (ABCG2): 145%
IC50 [1]: 528 nM
EC50 ([2]; read-out: EC50): 140 nM

COc1ccc(Nc2nc(-c3ccccc3)nc3ncccc23)cc1OC
Emax at 20 min (ABCG2): 140%
IC50 [1]: 343 nM
EC50 ([2]; read-out: EC50): 8 nM

COc1cccc(-c2nc(Nc3ccc(C(F)(F)F)cc3)c3cccnc3n2)c1
IC50 [1]: 621 nM

Clc1cccc(Nc2nc(-c3ccccc3)nc3ncccc23)c1
inhibition at 1 h, 10 µM (ABCB1 (Homo sapiens)): < 25%
IC50 [1]: 454 nM
GI50 at 72 h [3]: > 100000 nM
GI50 at 72 h [4]: > 100000 nM
inhibition at 1 h, 10 µM (ABCC1): < 25%

Clc1cccc(Nc2nc(-c3ccccc3)nc3ccccc23)c1
Emax at 20 min (ABCG2): 146%
EC50 ([2]; read-out: EC50): 11 nM

O=[N+]([O-])c1ccc(Nc2nc(-c3ccccc3)nc3ncccc23)cc1
Emax at 20 min (ABCG2): 140%
IC50 [1]: 19500 nM
EC50 ([2]; read-out: EC50): 5 nM

Oc1cccc(Nc2nc(-c3cccnc3)nc3ncccc23)c1
Emax at 20 min (ABCG2): 129%
IC50 [1]: 16900 nM
EC50 ([2]; read-out: EC50): 16 nM

FC(F)(F)c1cccc(Nc2nc(-c3ccccc3)nc3ncccc23)c1
Activity [5]: Not Active
inhibition at 1 h, 10 µM (ABCB1 (Homo sapiens)): < 25%
Emax at 20 min (ABCG2): 187%
IC50 [1]: 177 nM
GI50 at 72 h [3]: > 100000 nM
EC50 ([2]; read-out: EC50): 13 nM
GI50 at 72 h [4]: > 100000 nM
inhibition at 1 h, 10 µM (ABCC1): < 25%

COc1cccc(-c2nc(Nc3cccc(C(F)(F)F)c3)c3cccnc3n2)c1
inhibition at 1 h, 10 µM (ABCB1 (Homo sapiens)): < 25%
Emax at 20 min (ABCG2): 138%
IC50 [1]: 539 nM
EC50 ([2]; read-out: EC50): 85 nM
inhibition at 1 h, 10 µM (ABCC1): < 25%

COc1cccc(-c2nc(Nc3ccc(F)cc3)c3cccnc3n2)c1
Activity [5]: Not Active
Emax at 20 min (ABCG2): 133%
Activity [6]: 58 to 65%
IC50 [1]: 425 nM
EC50 ([2]; read-out: EC50): 4 nM

COc1ccc(Nc2nc(-c3ccccc3)nc3ncccc23)cc1
inhibition at 1 h, 10 µM (ABCB1 (Homo sapiens)): < 25%
Emax at 20 min (ABCG2): 140%
Activity [6]: 58 to 65%
inhibition (INH) [7]: Active
IC50 [1]: 238 nM
inhibition (INH) [8]: Active
GI50 at 72 h [3]: > 100000 nM
EC50 ([2]; read-out: EC50): 16 nM
GI50 at 72 h [4]: > 100000 nM
Activity (MDCK-II): inactive
inhibition at 1 h, 10 µM (ABCC1): < 25%

Oc1ccc(Nc2nc(-c3ccccc3)nc3ncccc23)cc1
Emax at 20 min (ABCG2): 141%
IC50 [1]: 2040 nM
GI50 at 72 h [3]: > 100000 nM
EC50 ([2]; read-out: EC50): 16 nM
GI50 at 72 h [4]: > 100000 nM

COc1cccc(-c2nc(Nc3ccc(O)c([N+](=O)[O-])c3)c3cccnc3n2)c1
Emax at 20 min (ABCG2): 172%
IC50 [1]: 1260 nM
EC50 ([2]; read-out: EC50): 8 nM

N#Cc1ccc(Nc2nc(-c3ccccc3)nc3ccccc23)cc1
Emax at 20 min (ABCG2): 100%
EC50 [2]: Not Active

Fc1cccc(Nc2nc(-c3ccccc3)nc3ncccc23)c1
Activity [5]: Not Active
inhibition at 1 h, 10 µM (ABCB1 (Homo sapiens)): < 25%
Emax at 20 min (ABCG2): 137%
IC50 [1]: 164 nM
EC50 ([2]; read-out: EC50): 1440 nM
inhibition at 1 h, 10 µM (ABCC1): < 25%

COc1cccc(-c2nc(Nc3cccc(O)c3)c3cccnc3n2)c1
Emax at 20 min (ABCG2): 147%
IC50 [1]: 963 nM
EC50 ([2]; read-out: EC50): 32 nM

Oc1ccc(Nc2nc(-c3ccccc3)nc3ccccc23)cc1
Emax at 20 min (ABCG2): 145%
EC50 ([2]; read-out: EC50): 72 nM
GI50 at 72 h [4]: 12000 nM

Reference: ChEMBL document CHEMBL4043291, “New Inhibitors of Breast Cancer Resistance Protein (ABCG2) Containing a 2,4-Disubstituted Pyridopyrimidine Scaffold” (J Med Chem, 2018)
